In data set [1] the test system is Escherichia coli. Description: Sterilization effect of synthesized peroxynitric acid on Escherichia coli (FIG. 8). Format: cell-based. Conditions: peroxynitric acid approximately 0.02 mM or higher; pH 3.5; 25° C.; from 7 orders to 2 orders or less (detection limit). Here is the method: In FIGS. 8, 9, and 11, solution of peroxynitric acid has a pH value of 3.5 and a temperature of 25° C. In the heat treatment of FIG. 10, the solution of peroxynitric acid is heated for thirty minutes to have a temperature of 60° C.
(§1) In this experiment, the detection limit was reached when the number of living microorganisms was in 2 orders of magnitude or less, then further sterilization effect was not measured. Thus, if the concentration of the synthesized peroxynitric acid is further increased, the number of living microorganisms is expected to be further reduced. In the experiment, diluted solution of the synthesized peroxynitric acid was used. If undiluted solution is used, more powerful microbicidal activity is expected to be exerted. The peroxynitric acid synthesized in the fourth embodiment has a concentration of 420 mM. For example, using undiluted solution of the synthesized peroxynitric acid probably lowers the number of living microorganisms to further […] of magnitude or more.

In data set [2] the test system is Bacillus subtilis spore. Description: Sterilization effect of synthesized peroxynitric acid on Bacillus subtilis spore (FIGS. 9-11). The class given is cell-based. Conditions: for drop of the number of living microorganisms in Bacillus subtilis spore: peroxynitric acid approximately 0.5 mM or higher, pH 3.5. As for the experimental part:
Where the solution of the synthesized peroxynitric acid has a pH value of 3.5 and the peroxynitric acid has a concentration of approximately 0.5 mM or higher, the number of living microorganisms in Bacillus subtilis spore drops from 6 orders of magnitude to 2 orders of magnitude or less, which indicates a drop of 4 orders of magnitude or more.
as §1

Data set [3] can be described thus: Lifetime / decomposition of synthesized peroxynitric acid depending on temperature. Format: physicochemical. Conditions: solution at 0° C. The source says: The synthesis reaction of peroxynitric acid progresses also at a room temperature. To be specific, peroxynitric acid is synthesized at a room temperature; however, the lifetime of the synthesized peroxynitric acid depends on temperature. Where being saved at a room temperature, the synthesized peroxynitric acid is quickly decomposed to turn into nitric acid in a short time. When the temperature rises by 5 degrees, the rate of decomposition doubles. For example, the rate of decomposition at a temperature of 20° C. is 16 times as fast as that at a temperature of 0° C. (zero). Thus, the synthesized peroxynitric acid turns into nitric acid solution very quickly at a temperature of 50° C. The half-life of the peroxynitric acid is 10 minutes or so at a room temperature. The half-life of the peroxynitric acid is a few hours (2 to 3 hours or so) at a temperature of 0 (zero) degrees.
In order to preserve the solution with the biocidal activity maintained, it is preferable to set the temperature of the solution as low as possible. For example, the solution is adjusted to have a temperature of 0° C., which enables the solution to be stored/preserved for a couple of hours, for example, for 5 to 8 hours or so. Freezing the solution allow the solution to be preserved for a longer time.

A short description of data set [4]: Activation energy in decomposition response, compared with literature value. Format: physicochemical. As for the experimental part: As for the substance corresponding to the retention time RT of 2.8 minutes shown in FIG. 5, an activation energy in decomposition response thereof was actually measured. The activation energy measured was compared to an activation energy in decomposition response of peroxynitric acid. The comparison result is provided as follows: • Actual measured value: 109 kJ/mol • Literature value: 110 kJ/mol • Both the values are in good accord with each other. Thereby, the substance corresponding to the retention time RT of 2.8 minutes is probably peroxynitric acid.
The activation energy in decomposition response herein was cited from the following document.
J. Phys. Chem. A 1997, 101, 8822-8829 “Peroxynitric Acid Decay Mechanisms and Kinetics at Low pH”.

Data set [5] can be described thus: Time needed for sterilization depending on solution temperature. Conditions: solution temperature 30° C. Here is the method:
Where the solution has a temperature of 10° C. or lower, the solution may be applied to an object to be sterilized with the temperature remaining unchanged. It is also possible to raise the temperature of the solution to 20° C. or more at the time of application of the solution to the object to be sterilized. It is preferable for the solution to have a lower temperature in order to preserve peroxynitric acid, but at the same time, is preferable for the solution to have a certain level of high temperature for sterilization. To be specific, while the solution having a temperature of 0° C. needs time to sterilize the object, the solution having a temperature of 30° C. needs only 20 seconds to sufficiently sterilize the object. When the situation permits to take time to sterilize the object, it is preferable to perform sterilization at a low temperature. When quick sterilization is needed, it is preferable to raise the temperature, for example, to 30 through 40° C.

Data set [6] can be described thus: Sterilization effect after adding enzyme for disappearing superoxide anion radicals. The source says: The peroxynitric acid in the solution is probably a precursor which produces the superoxide anion radicals (O2—.). The superoxide anion radicals (O2—.) are probably precursors which produce the hydroperoxy radicals (HOO.).
The conditions of data set [7]: J. Phys. Chem. A 1997, 101, 8822-8829; cited from earlier work.
For data set [8] the following is noted: equilibrium O2-. + H+ <-> HOO.; cited from earlier work.

peroxynitric acid: in data set [1], the “drop of the fungicidal concentration (number of living microorganisms) of Escherichia coli” value was at least 5 orders. In addition, the “drop of the number of living microorganisms in Bacillus subtilis spore” value is recorded as at least 4 orders in data set [2] (FIG. 9, 25° C., from 6 orders to 2 orders or less (detection limit)) and ≥ 4 orders of magnitude in data set [2] (FIG. 10). In addition, the “number of living microorganisms in Bacillus subtilis spore” value in data set [2] (FIG. 10, solution pH 6.5, stays in 6 orders of magnitude) was “approximately constant independently of the concentration of the peroxynitric acid”. Besides, the “sterilization effect on Bacillus subtilis spore after heat treatment” value in data set [2] (FIG. 11, peroxynitric acid heated thirty minutes to 60° C., count stays in 6 orders of magnitude) is “disappearance of sterilization effect”. Further, in data set [3], the “time the solution can be stored/preserved with biocidal activity maintained” value lay within 5 to 8 h. In addition, the “activation energy in decomposition response, actual measured value” in data set [4] stood at 26.1 kcal/mol. For the same compound, the “time needed to sufficiently sterilize the object” value in data set [5] worked out at 20 s. In addition, in data set [6], the “sterilization effect with enzyme for disappearing superoxide anion radicals in the solution” value is reported as “sterilization effect is not observed”. Besides, in data set [7], the “activation energy in decomposition response, literature value” was 26.3 kcal/mol.

For `[O]O` [hydroperoxy radicals (HOO.), hydroperoxy radicals], the “pKa (acid dissociation constant)” value in data set [8] was 4.8.
